The conditions of data set [1]: rat, in vivo, po, 2.5 mg/kg, 72 h. The method, then: Its chemical formula is Fe(C4 H7 O5)2.2H2 O, molecular weight:362.
Animals: Male Wistar rats were supplied by Experimental Animal Center, Tumor Institute of Heilongjian Province with body weight of 140 g-180 g. The iron-low diet contains iron 0.9 mg/kg.
50 rats were randomly divided into 5 groups of [19] 10 rats each. On this basis of administration of iron-low diet, each group of rats was administered respectively by gavage according to the dosage below:
High dosage group: Fe, 5 mg/kg, ferrous L-threonate, 32.32 mg/kg;
Middle dosage group: Fe, 2.5 mg/kg, ferrous L-threonate, 16.16 mg/kg;
Low dosage group: Fe, 1.0 mg/kg, ferrous L-threonate, 6.46 mg/kg;
Positive drug control group (ferrous sulfate): Fe, 2.5 mg/kg, ferrous sulfate, 12.43 mg/kg;
Negative drug control group (iron-low diet): Fe, 0.9 mg/kg (measured value).
After the end of 7 days feeding normal diet period, rats were supplemented with iron-low diet prepared according to AOAC formula for another 7 days. The 1-3 groups were treatment groups and supplemented with ferrous L-threonate 32.32 mg/kg (5 mgFe/kg, high dose group), 16.16 mg/kg (2.5 mg Fe/kg, middle dose group) and 6.46 mg/kg (1.0 mg Fe/kg, low dose group), respectively. The forth, positive drug control group, was provided with ferrous sulfate 12.43 mg/kg (2.5 mg Fe/kg). The fifth was model control group and was offered with iron-low diet (0.9 mg Fe/kg). Each groups were arranged to take drug one time by I.G (gavage) method per day and in the same time were supplemented with deionized water.
The test was sustained three days. Each rat's excrement was collected, dried at temperature 80-90° C., weighed and ground into 40-60 meshes. About 0.5 to 0.6 gram sample was taken and a mixture of nitric acid and perchloric acid at a ratio of 4:1 was added therein until completion of digestion. The constant volume is 10 ml. The iron content of excrement was determined by atomic absorption method and the iron absorptive rate for each rat can be calculated by the formula listed below. [formula]

For another data set, the system named is IDA. The note with it: in vivo; cited from earlier work.
A further data set deals with Hemolytic Anemia Model. The experiment in a line: Hemolytic anemia model (acetylphenylhydrazine), rats. It is filed as in vivo, male Wistar rats. The note with it: 8.64 mg Fe/kg (middle dosage / positive control). The method, then: 1. […] All drugs were diluted by distilled water.
2. […] Animal diet also was purchased from Beijing Medical University.
(1) Hemolytic Anemia Model: Hemolytic anemia model was prepared for rats by injecting reagent of acetylphenylhydrazine (C8 H10 N2 O, produced by Beijing Biochemical Company) subcutaneously. The drug acetyphenylhydrazine was mixed with physiological saline to get its injection solution of 4% by weight of acetyphenylhydrazine. The solution was injected subcutaneously into each rat with a dosage of 57 μg/g at the beginning of the experiments. The content of blood hemochrome for each rat was examined at 2 days and 4 days later, respectively. When the mean blood hemochrome decreased to about 6.11±0.25 g %, rats were randomly divided into 6 groups of 18 rats each. […] The forth groups was positive drug control groups. The fifth group and the sixth group were designed as model group and normal control group, respectively.

Another data set has as its system Blood-loss Anemia Model. In words: Blood-loss anemia model, rats.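 Further: male Wistar rats made anemic by repeated orbital bloodletting, kept on iron-low diet with deionized water while dosed, compared against untreated anemic model and normal-diet control groups.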 The note with it: 8.64 mg Fe/kg (middle dosage / positive controls), n=10.
The test system of a further data set is lymphoma cells. The note with it: cited from earlier work.

We go through four compounds from US6313170A, “L-threonate ferrous, as well as pharmaceutical composition and use for improving and treating human anemia thereof” (priority 1997, dated 2001).

Protocol for Blood-loss Anemia Model: Ferrous gluconate, the positive control drug, yellow-green powder and 11% ferrous content, was purchased from Ganjian Pharmaceutical Company of Jianxi Province. Ferrous fumarate, 6.4% ferrous content, was purchased from the 18th Pharmaceutical Company of Shanghai. All drugs were diluted by distilled water.
7 groups were prepared as hemolytic anemia groups and one group was taken as normal control group supplemented with normal diet and water. The hemolytic anemia model was prepared by subjecting rats to inner canthus bloodletting of right eye through capillary glass tube. The first bloodletting content was 2.0 ml for each rat and in that time the range of hemochrome for rats was from 9.78 to 10.65 g %. Two days later, the second bloodletting (2 ml/rat) was carried out with the hemochrome values of 7.40-7.88 g %. The total bloodletting volume for each rat was 4 ml and was 32.9% in volume of the whole blood circulating the body.
While one hemolytic anemia group and one normal control group were taken as reference groups compared with other groups left. These two groups' rats were killed and the blood parameters were recorded. Other six groups now were randomly divided into three treatment groups of ferrous L-threonate with high, middle and low dosages respectively, two positive drugs control groups of ferrous gluconate and ferrous fumarate and one model group. At the end of 12 days and 18 days experimental periods, 5 and 10 rats of each group were killed correspondingly. During the course of experiment, the variations of hemochrome content were examined with 6 days interval.
While Element ferrous content 8.64 mg/kg as ferrous gluconate or ferrous fumarate was for positive drug control group. The groups for blood-loss anemia were provided iron-low diet and deionized water during the period of the administration of drugs, while the normal animal control group was provided normal diet and deionized water.

ferrous sulfate [reference compound] came in with an Absorptivity in data set [1] of 42.00 ± 1.02%. Besides, in the data set on IDA, the side effects result is “limited because of its side effects”.
Turning to Ferrous gluconate [reference compound], the “Iron content of whole blood” value with Hemolytic Anemia Model amounted to 286.04 ± 26.797 µg/mL. Also, the “Serum ferritin (SF)” value with Hemolytic Anemia Model worked out at 20.14 ± 2.83 ng/mL. The hemoglobin content is given as 6.57 g % in the data set on Hemolytic Anemia Model (after anemia (before treatment)), 15.34 g % with Hemolytic Anemia Model (before anemia (baseline)), 10.62 g % in the data set with Hemolytic Anemia Model (one week after treatment) and 12.65 g % in the data set with Hemolytic Anemia Model (two weeks after treatment). Moreover, the Blood hemochrome content is given as 7.95 ± 0.30 with Blood-loss Anemia Model (6 days after treatment), 10.50 ± 0.61 in the data set on Blood-loss Anemia Model (12 days after treatment), 11.80 ± 0.63 with Blood-loss Anemia Model (18 days after treatment) and 7.50 ± 0.76 in the data set with Blood-loss Anemia Model (before treatment). In addition, the “GPC (blood granulophilocyte)” value came out at 12.66% in the data set with Blood-loss Anemia Model (12 days) and 9.04% in the data set on Blood-loss Anemia Model (18 days). Moreover, the RBC in the data set with Blood-loss Anemia Model (12 days) was 4.488e+12 L⁻¹; in the data set on Blood-loss Anemia Model (18 days) it was 5.14e+12 L⁻¹.
`O=C([O-])/C=C/C(=O)[O-].[Fe+2]` [Ferrous fumarate, reference compound]: the Blood hemochrome content in the data set on Blood-loss Anemia Model (6 days after treatment) amounted to 7.80 ± 0.24; with Blood-loss Anemia Model (12 days after treatment), 10.12 ± 0.52; in the data set on Blood-loss Anemia Model (18 days after treatment) it was 11.84 ± 0.45; in the data set on Blood-loss Anemia Model (before treatment), 7.43 ± 0.85. Further, the “GPC (blood granulophilocyte)” value worked out at 12.66% with Blood-loss Anemia Model (12 days) and 9.04% in the data set with Blood-loss Anemia Model (18 days). The RBC with Blood-loss Anemia Model (12 days) was found to be 4.2e+12 L⁻¹; in the data set on Blood-loss Anemia Model (18 days) it was 5.14e+12 L⁻¹.
As to `O=C(O)[C@H](O)[C@@H](O)CO` [Calcium L-threonate], the “uptake of vitamin C by the lymphoma cells” value with lymphoma cells was “can improve uptake of vitamin C by the lymphoma cells”.
